Where a name gives a salt, the structure may show the parent alone.
Key:
Assay type in all cases: biochemical
[1] = biological target: T1, FFA-albumin linkage (human serum albumin) (Homo sapiens, UniProt P02768); assay: Example 1: rate of ACS-coupled NADH reaction (Procedure A) on FFA sample containing albumin, with dissociating agent; settings: sample 0.5 mM FFA + 2.5% human serum albumin, 37° C.
Protocol: 100 mM Tris-HCl buffer pH 8.0 containing 2 mg/ml of Triton X-100, 2 mM 2Na-EDTA (disodium ethylenediaminetetraacetate) and 10 mM MgCl2.
40 mg of ATP disodium salt, 50 mg of potassium phosphoenolpyruvate, 20 U of myokinase (available from Boehringer Mannheim (B.M.), grade I), 15 U of pyruvate kinase (available from B.M., grade II) and 15 U of lactate dehydrogenase (available from B.M., derived from rabbit muscle) are dissolved in 1 ml of the above-mentioned buffer.
In 1 ml of the above buffer, 3 mg of NADH disodium salt is dissolved.
An ACS solution in 50% glycerine in a concentration of about 4 U/ml as prepared in Preparation 1 which is diluted with three volumes of water is used.
Aqueous 0.5 mM potassium oleate solution is used. […] The content of the microcell was then preheated at 37° C. in a spectrophotometer (Shimadzu, model UV-200) equipped with a thermostated cell holder. Thereafter 20 μl of the CoA solution was added to initiate the reaction and decrease in optical density (OD) at 340 nm was recorded with the elapse of time. From the data, the value of maximum ΔOD/min was calculated.

[2] = biological target: T2, FFA-albumin linkage in human serum (Homo sapiens, UniProt P02768); assay: Example 2: enzymatic assay of FFA in human serum samples (Procedure A) with dissociating agent
T2 construct: were replaced by human serum samples; from tissue; host or cells: human serum
T2 sequence (P02768 25-609): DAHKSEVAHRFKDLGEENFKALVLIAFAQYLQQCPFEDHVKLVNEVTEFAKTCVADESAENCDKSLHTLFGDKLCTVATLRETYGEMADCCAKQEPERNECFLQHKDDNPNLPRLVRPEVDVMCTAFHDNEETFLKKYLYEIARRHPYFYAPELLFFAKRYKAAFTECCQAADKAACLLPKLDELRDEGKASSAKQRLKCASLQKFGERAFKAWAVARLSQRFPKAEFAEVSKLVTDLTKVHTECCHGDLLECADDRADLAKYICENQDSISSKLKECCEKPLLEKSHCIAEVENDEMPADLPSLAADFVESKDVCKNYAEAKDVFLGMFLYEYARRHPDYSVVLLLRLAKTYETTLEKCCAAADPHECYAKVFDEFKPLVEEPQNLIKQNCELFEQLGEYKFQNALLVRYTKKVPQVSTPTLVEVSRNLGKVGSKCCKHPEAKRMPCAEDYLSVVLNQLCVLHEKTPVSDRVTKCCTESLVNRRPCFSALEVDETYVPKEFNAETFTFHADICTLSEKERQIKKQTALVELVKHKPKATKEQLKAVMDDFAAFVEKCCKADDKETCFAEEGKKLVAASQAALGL
Protocol: The reaction was continued for 15 minutes at 37° C., and the OD340 values were read just before the addition of CoA solution and 15 minutes later when the reaction was almost complete and decrease in OD ceased. As a sample blank distilled water was substituted for the ACS solution in the reaction systems and the reaction and measurement of OD were carried out in the same way.
The concentration of FFA in a serum sample was calculated by the following equation: [formula] where:
A=0D340 of the reaction system just before the addition of CoA solution;
B=OD340 of the reaction system after 15 minutes
C=OD340 just before the addition of CoA solution in the blank run, and
D=OD340 after 15 minutes in the blank run.

[3] = biological target: T1, FFA-albumin linkage (human serum albumin); assay: Example 3: ACS/ACO colorimetric FFA assay (Procedure B) on potassium oleate plus human serum albumin; settings: 0.5% in assay system; sample 280 μM potassium oleate + 2.5% human serum albumin; without agent -0.016
Protocol: 100 mM Tris-HCl buffer pH 8.0 containing 3.2 mM Triton X-100, 2 mM disodium ethylenediaminetetraacetate and a dissociating agent such as a benzenesulfonate.
100 mM Tris-HCl buffer pH 8.0 containing 60 mM magnesium chloride.
A solution of 80 mg of ATP disodium salt and 20 U of myokinase dissolved in 40 ml of Buffer (1).
Prepared by adding 5 ml of the ACS solution in 50% glycerine with a concentration of about 4 U/ml as prepared in Preparation 1 to a solution of 25 mg of CoA in 5 ml of Buffer (2).
A suspension of ACO in 50% saturated ammonium sulfate having a concentration of about 50 U/ml and prepared as described in Preparation 2. […]
A mixture of 100 μl of a sample containing 280 μM potassium oleate and 2.5% human serum albumin, 400 μl of Enzyme Solution (1) and 100 μl of Enzyme Solution (2) was kept at 37° C. for 15 minutes. […] The reaction solution was placed into a cell having a thickness of 10 mm and the value (A) for optical density at 535 nm was measured. As a control, the sample was replaced by the same volume of water and the optical density value (B) was measured in the same way.
An aqueous potassium oleate solution which is free from albumin was separately prepared as a standard solution. This solution was substituted for the sample and the optical density value (C) was also measured in the same way. […]

[4] = dissociating agent 25 mM, control with albumin 0.019, without albumin 0.076
[5] = human serum C, solution of dissociating agent 20 mM, extraction method 560

T1 sequence (P02768 25-609): as above

CCCCCc1ccc(S(=O)(=O)[O-])cc1.[Na+] [Sodium p-n-amylbenzenesulfonate]
maximum ΔOD340/min ([1]; dissociating agent 50 mM): 0.030 ΔOD340/min

Cc1ccc(S(=O)(=O)O)cc1 [Sodium p-toluenesulfonate]
maximum ΔOD340/min ([1]; dissociating agent 100 mM): 0.030 ΔOD340/min | FFA assayed ([2]; human serum C, solution of dissociating agent 1000 mM, extraction method 560): 585 µM | ΔOD535 [3]: 0.078

O=C(O)CCCCCCCCCCCCCCC(=O)O [Dipotassium 1,14-tetradecamethylenedicarboxylate]
maximum ΔOD340/min ([1]; dissociating agent 2.5 mM): 0.045 ΔOD340/min | FFA assayed ([2]; human serum B, solution of dissociating agent 10 mM, extraction method 370): 340 µM | FFA assayed ([2]; human serum C, solution of dissociating agent 10 mM, extraction method 560): 570 µM

O=C(O)CCCCC(=O)O [Potassium salt of tetramethylenedicarboxylic acid, reference compound]
maximum ΔOD340/min [1, 4]: 0.015 ΔOD340/min

O=C(O)CCCCCCCCCCCCC(=O)O [Dipotassium 1,12-dodecamethylenedicarboxylate]
maximum ΔOD340/min ([1]; dissociating agent 2.5 mM): 0.041 ΔOD340/min | maximum ΔOD340/min ([1]; dissociating agent 10 mM): 0.048 ΔOD340/min | FFA assayed [2, 5]: 575 µM

O=C(O)CCCCCCCCCCC(=O)O [Potassium salt of decamethylenedicarboxylic acid]
maximum ΔOD340/min ([1]; dissociating agent 5 mM): 0.028 ΔOD340/min | maximum ΔOD340/min ([1]; dissociating agent 10 mM): 0.031 ΔOD340/min | maximum ΔOD340/min ([1]; dissociating agent 20 mM): 0.034 ΔOD340/min | FFA assayed ([2]; human serum B, solution of dissociating agent 50 mM, extraction method 370): 335 µM

O=C(O)CCCCCCCCCCCCCCCCC(=O)O [Dipotassium 1,16-hexadecamethylenedicarboxylate]
maximum ΔOD340/min ([1]; dissociating agent 2.5 mM): 0.032 ΔOD340/min

O=C(O)CCCCCCC(=O)O [Potassium salt of hexamethylenedicarboxylic acid, reference compound]
maximum ΔOD340/min [1, 4]: 0.015 ΔOD340/min

O=C(O)CCCCCCCCCCCC(=O)O [Potassium salt of 1,11-undecamethylenedicarboxylic acid]
maximum ΔOD340/min ([1]; dissociating agent 5 mM): 0.035 ΔOD340/min | maximum ΔOD340/min ([1]; dissociating agent 10 mM): 0.040 ΔOD340/min | maximum ΔOD340/min ([1]; dissociating agent 20 mM): 0.045 ΔOD340/min | FFA assayed ([2]; human serum A, solution of dissociating agent 20 mM, extraction method 1475): 1500 µM | FFA assayed ([2]; human serum B, solution of dissociating agent 20 mM, extraction method 370): 340 µM | FFA assayed [2, 5]: 570 µM

O=C(O)CCCCCCCCC(=O)O [Potassium salt of 1,8-octamethylenedicarboxylic acid]
maximum ΔOD340/min [1, 4]: 0.026 ΔOD340/min
